According to the supplement of paper PMC10307832:

Legend:
Assay in all cases: relative viability (nuclei count vs DMSO), 5 days (fraction); higher = more cells survive
[1] = compound: OCc1c[nH]c2ccccc12 [Indole-3-carbinol] + COc1cc2c(Oc3ccc(NC(=O)C4(C(=O)Nc5ccc(F)cc5)CC4)cc3F)ccnc2cc1OCCCN1CCOCC1 [Foretinib] (partner 0.25 µM)
In short: (§1)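 Nuclei were stained with Hoechst during a one-step fixation (final 0.05% Triton X-100, 1% formaldehyde, 1 ug/ml Hoechst) carried out 5 days after dosing, then counted on 4× images. The cells, lung cancer lines in 1536-well plates, had been dosed by pin tool the day after seeding with one drug alone or a fixed anchor-drug dose plus five library-drug doses (not always all listed) in √10 steps. Relative viability is the nuclei count in treated wells divided by that in vehicle wells, and each value is the median of duplicate plates.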

[2] = compound: OCc1c[nH]c2ccccc12 [Indole-3-carbinol] + Nc1ncn([C@H]2C[C@H](O)[C@@H](CO)O2)c(=O)n1 [Decitabine] (partner 2 µM)
In short: as §1

[3] = compound: OCc1c[nH]c2ccccc12 [Indole-3-carbinol] + CCNC(=O)c1noc(-c2cc(C(C)C)c(O)cc2O)c1-c1ccc(CN2CCOCC2)cc1 [Luminespib] (partner 0.01 µM)
In short: as §1

[4] = compound: OCc1c[nH]c2ccccc12 [Indole-3-carbinol] + Cc1nc(NC(=O)N2CCC[C@H]2C(N)=O)sc1-c1ccnc(C(C)(C)C(F)(F)F)c1 [Alpelisib] (partner 2 µM)
In short: as §1

[5] = compound: OCc1c[nH]c2ccccc12 [Indole-3-carbinol] + COc1cccc2cc(-c3nc([C@H]4CC[C@H](C(=O)O)CC4)n4ncnc(N)c34)[nH]c12 [OSI-027] (partner 0.5 µM)
In short: as §1

Cell Line | relative viability ([1]; first compound 0.253 µM) | relative viability ([1]; first compound 2.53 µM) | relative viability ([1]; first compound 8 µM) | relative viability ([2]; first compound 0.253 µM) | relative viability ([2]; first compound 0.8 µM) | relative viability ([2]; first compound 2.53 µM) | relative viability ([2]; first compound 8 µM) | relative viability ([3]; first compound 0.253 µM) | relative viability ([3]; first compound 0.8 µM) | relative viability ([3]; first compound 2.53 µM) | relative viability ([3]; first compound 8 µM) | relative viability ([4]; first compound 0.253 µM) | relative viability ([4]; first compound 0.8 µM) | relative viability ([4]; first compound 2.53 µM) | relative viability ([4]; first compound 8 µM) | relative viability ([5]; first compound 0.253 µM) | relative viability ([5]; first compound 0.8 µM) | relative viability ([5]; first compound 2.53 µM) | relative viability ([5]; first compound 8 µM) | relative viability ([1]; first compound 0.8 µM)
NCI-H2347 | 0.743 | 1.21 | 0.931 | 0.678 | 0.58 | 0.509 | 0.574 | 0.609 | 0.215 | 0.425 | 0.59 | 1.06 | 1.08 | 1.14 | 0.868 | 0.429 | 0.374 | 0.287 | 0.364 | –
HCC-827 | 1.07 | 1.03 | 1.1 | 0.379 | 0.337 | 0.312 | 0.34 | 0.579 | 0.622 | 0.67 | 0.644 | 0.911 | 1 | 0.99 | 0.985 | 0.751 | 0.659 | 0.723 | 0.808 | 1.02
NCI-H1666 | 0.932 | 1.01 | 0.94 | 0.809 | 0.673 | 0.696 | 0.661 | 0.914 | 0.925 | 1.01 | 1.05 | 0.804 | 0.998 | 0.906 | 0.916 | 0.7 | 0.878 | 0.874 | 0.876 | 1
NCI-H358 | 0.805 | 0.73 | 0.73 | 0.204 | 0.207 | 0.304 | 0.207 | 0.366 | 0.447 | 0.458 | 0.233 | 0.773 | 0.777 | 0.992 | 0.959 | 0.792 | 0.734 | 0.859 | 0.64 | 0.69
201T | 1.1 | 1.04 | 1.01 | 0.819 | 0.834 | 0.885 | 0.844 | 1.03 | 1.01 | 1.07 | 1 | 0.954 | 1.04 | 1.06 | 1.06 | 0.895 | 0.765 | 0.748 | 0.718 | 1.07
PC-3 [JPC-3] | 1.07 | 1.02 | 0.967 | 0.868 | 0.832 | 0.91 | 0.809 | 0.644 | 0.796 | 0.722 | 0.658 | 1.08 | 1.13 | 1.03 | 0.967 | 0.714 | 0.741 | 0.704 | 0.745 | 1.05
NCI-H2405 | 1.07 | 1.04 | 0.997 | 0.829 | 0.711 | 0.852 | 0.635 | 0.847 | 0.812 | 0.859 | 0.696 | 0.901 | 0.661 | 0.988 | 0.749 | 0.617 | 0.676 | 0.633 | 0.656 | 1.07
LXF-289 | 0.973 | 0.968 | 0.945 | 0.383 | 0.324 | 0.362 | 0.369 | 0.787 | 0.754 | 0.647 | 0.575 | 1.03 | 1.1 | 1.09 | 0.99 | 0.838 | 0.855 | 0.783 | 0.754 | 0.978
EKVX | 0.859 | 0.844 | 0.829 | 0.326 | 0.353 | 0.326 | 0.381 | 0.972 | 0.884 | 0.908 | 0.848 | 0.763 | 0.973 | 0.9 | 0.852 | 0.719 | 0.74 | 0.731 | 0.633 | 0.97
A-427 | 0.941 | 1.01 | 0.94 | 0.53 | 0.542 | 0.607 | 0.547 | 0.932 | 0.96 | 0.908 | 0.895 | 1.01 | 1.14 | 1.05 | 0.953 | 0.372 | 0.444 | 0.566 | 0.537 | 1.14
SK-MES-1 | 1.03 | 0.946 | 0.882 | 0.341 | 0.415 | 0.413 | 0.348 | 0.751 | 0.88 | 0.667 | 0.798 | 0.908 | 0.979 | 0.833 | 0.764 | 0.596 | 0.642 | 0.588 | 0.537 | 0.922
LCLC-97TM1 | 0.982 | 1.03 | 0.983 | 0.259 | 0.249 | 0.199 | 0.223 | 0.823 | 0.935 | 0.859 | 0.865 | 0.203 | 0.277 | 0.242 | 0.227 | 0.381 | 0.527 | 0.386 | 0.668 | 0.973
NCI-H2170 | 1.04 | 0.815 | 0.943 | 0.505 | 0.494 | 0.446 | 0.473 | 0.74 | 0.665 | 0.841 | 0.624 | 0.794 | 0.815 | 0.738 | 0.81 | 0.702 | 0.815 | 0.749 | 0.671 | 0.861
NCI-H1993 | 0.716 | 0.763 | 0.846 | 0.641 | 0.657 | 0.573 | 0.623 | 1.02 | 0.915 | 0.889 | 0.823 | 0.723 | 0.663 | 0.631 | 0.674 | 0.513 | 0.516 | 0.63 | 0.468 | 0.899
NCI-H460 | 1.03 | 1.02 | 0.992 | 0.564 | 0.44 | 0.518 | 0.473 | 0.0368 | 0.037 | 0.0298 | 0.0346 | 0.458 | 0.457 | 0.563 | 0.517 | 0.594 | 0.621 | 0.632 | 0.6 | 1.02
